Assay [1] addresses Sodium-dependent serotonin transporter (Rattus norvegicus, UniProt P31652). Kind of assay: Binding affinity towards rat serotonin transporter (SERT).
For assay [2], the target named is Sodium-dependent dopamine transporter (Rattus norvegicus, UniProt P23977). Briefly: Binding affinity towards dopamine transporter (DAT).

The Ki is a measure of affinity in units of concentration, obtained from inhibition or displacement. Lower therefore signals higher affinity.

Sequence of Sodium-dependent dopamine transporter (P23977 whole entry): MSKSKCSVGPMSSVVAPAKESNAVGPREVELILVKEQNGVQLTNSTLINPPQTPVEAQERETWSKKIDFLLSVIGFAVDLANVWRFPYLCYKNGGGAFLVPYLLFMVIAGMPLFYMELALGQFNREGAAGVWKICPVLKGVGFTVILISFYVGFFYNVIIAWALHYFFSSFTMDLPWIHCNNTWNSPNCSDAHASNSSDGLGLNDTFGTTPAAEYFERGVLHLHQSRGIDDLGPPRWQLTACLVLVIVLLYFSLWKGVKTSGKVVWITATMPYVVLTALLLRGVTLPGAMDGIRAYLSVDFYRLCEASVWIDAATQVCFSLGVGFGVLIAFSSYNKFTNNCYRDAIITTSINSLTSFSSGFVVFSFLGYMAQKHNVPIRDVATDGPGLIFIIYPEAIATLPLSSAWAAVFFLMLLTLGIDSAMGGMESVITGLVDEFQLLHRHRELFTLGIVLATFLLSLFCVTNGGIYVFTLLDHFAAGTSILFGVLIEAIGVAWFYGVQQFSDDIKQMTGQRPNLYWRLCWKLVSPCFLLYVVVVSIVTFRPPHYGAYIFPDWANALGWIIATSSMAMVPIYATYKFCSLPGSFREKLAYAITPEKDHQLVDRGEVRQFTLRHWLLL
Sequence of Sodium-dependent serotonin transporter (P31652 whole entry): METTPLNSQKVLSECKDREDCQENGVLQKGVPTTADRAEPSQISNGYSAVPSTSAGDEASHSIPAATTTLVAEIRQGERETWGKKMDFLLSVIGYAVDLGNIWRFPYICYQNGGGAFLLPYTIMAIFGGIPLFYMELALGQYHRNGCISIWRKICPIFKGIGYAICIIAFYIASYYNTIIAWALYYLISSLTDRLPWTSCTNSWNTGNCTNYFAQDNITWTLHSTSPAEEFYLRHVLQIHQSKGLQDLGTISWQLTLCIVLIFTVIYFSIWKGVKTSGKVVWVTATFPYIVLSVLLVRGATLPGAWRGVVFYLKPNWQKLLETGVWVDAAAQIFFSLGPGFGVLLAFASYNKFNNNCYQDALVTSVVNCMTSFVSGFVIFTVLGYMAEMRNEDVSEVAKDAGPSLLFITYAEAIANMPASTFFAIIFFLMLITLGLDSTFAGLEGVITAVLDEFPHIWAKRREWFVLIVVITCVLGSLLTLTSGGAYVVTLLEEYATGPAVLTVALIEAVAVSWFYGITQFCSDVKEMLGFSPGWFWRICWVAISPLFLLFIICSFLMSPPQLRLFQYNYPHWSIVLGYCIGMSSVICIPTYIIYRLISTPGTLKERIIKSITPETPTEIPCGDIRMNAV

In the case of `OC(CCN1CCN(CCOC(c2ccc(F)cc2)c2ccc(F)cc2)CC1)c1ccc(Br)cc1` (configuration not stated), the Ki in assay [1] was 50 nM; in assay [2] it was 2.5 nM. On to `O=C(CCN1CCN(CCOC(c2ccccc2)c2ccccc2)CC1)c1cccc(F)c1`, for which the results for the Ki in assay [1] and in assay [2] were 1360 nM and 260 nM, respectively. For `COc1ccc2c(c1)CCC(CN1CCN(CCOC(c3ccc(F)cc3)c3ccc(F)cc3)CC1)C2=O` (configuration not stated), the Ki amounted to 3 nM in assay [1] and 22 nM in assay [2].

With `O=C1CCCCC1CN1CCN(CCOC(c2ccccc2)c2ccccc2)CC1` (configuration not stated), the Ki in assay [1] was 3300 nM; in assay [2] it was 250 nM. As for `OC1CCCC1CN1CCN(CCOC(c2ccc(F)cc2)c2ccc(F)cc2)CC1` (configuration not stated), the Ki was 920 nM in assay [1] and 32 nM in assay [2]. As to `O=C1c2ccccc2CCC1CN1CCN(CCOC(c2ccccc2)c2ccccc2)CC1` (configuration not stated), the results for the Ki in assay [1] and in assay [2] were 1050 nM and 390 nM, respectively. As for `OC1CCCC1CN1CCN(CCOC(c2ccccc2)c2ccccc2)CC1` (configuration not stated), the Ki in assay [1] was determined as 2200 nM; in assay [2], 170 nM. `O=C(CCN1CCN(CCOC(c2ccc(F)cc2)c2ccc(F)cc2)CC1)c1cccc(F)c1`: the results for the Ki in assay [1] and in assay [2] were 220 nM and 89 nM, respectively. Consider `OC(CCN1CCN(CCOC(c2ccccc2)c2ccccc2)CC1)c1ccc(Br)cc1` (configuration not stated), for which the values for the Ki in assay [1] and in assay [2] were 340 nM and 7.5 nM, respectively.

As to `O=C1CCCCCC1CN1CCN(CCOC(c2ccccc2)c2ccccc2)CC1` (configuration not stated), the Ki was determined as 4100 nM in assay [1] and 270 nM in assay [2].

Consider `O=C(CCN1CCN(CCOC(c2ccccc2)c2ccccc2)CC1)c1ccc(Br)cc1`, for which the Ki in assay [1] was found to be 2600 nM; in assay [2], 290 nM.

Turning to `COc1ccc2c(c1)CC[C@@H](CN1CCN(CCOC(c3ccccc3)c3ccccc3)CC1)[C@@H]2O`, the Ki in assay [1] turned out to be 93 nM; in assay [2] it was 40 nM. `O=C(CCN1CCN(CCOC(c2ccc(F)cc2)c2ccc(F)cc2)CC1)c1ccc(Br)cc1`: the Ki in assay [1] is 480 nM; in assay [2] it was 37 nM.

Turning to `O=C(CCN1CCN(CCOC(c2ccccc2)c2ccccc2)CC1)c1cccs1`, the Ki in assay [1] is 1240 nM; in assay [2], 190 nM.

In the case of `COc1ccc2c(c1)CCC(CN1CCN(CCOC(c3ccc(F)cc3)c3ccc(F)cc3)CC1)=C2`, the Ki is 57 nM in assay [1] and 14 nM in assay [2]. For the molecule `COc1ccc2c(c1)CC[C@@H](CN1CCN(CCOC(c3ccccc3)c3ccccc3)CC1)[C@H]2O`, the Ki in assay [1] amounted to 100 nM; in assay [2], 32 nM. For `OC(CCN1CCN(CCOC(c2ccc(F)cc2)c2ccc(F)cc2)CC1)c1ccco1` (configuration not stated), the Ki in assay [1] worked out at 150 nM; in assay [2], 10 nM. The like results for `OC(CCN1CCN(CCOC(c2ccccc2)c2ccccc2)CC1)c1cccs1` (configuration not stated) were, in that order, 690 nM and 15 nM. In assay [1], `O=C1CCCC1CN1CCN(CCOC(c2ccccc2)c2ccccc2)CC1` (configuration not stated) registered a Ki of 5700 nM. As for `O[C@H]1c2ccccc2CC[C@H]1CN1CCN(CCOC(c2ccc(F)cc2)c2ccc(F)cc2)CC1`, the values for the Ki in assay [1] and in assay [2] were 30 nM and 1.3 nM, respectively. With `COc1ccc2c(c1)CC[C@@H](CN1CCN(CCOC(c3ccc(F)cc3)c3ccc(F)cc3)CC1)[C@H]2O`, the Ki in assay [1] was found to be 3 nM; in assay [2], 7.3 nM.

Take `OC(CCN1CCN(CCOC(c2ccc(F)cc2)c2ccc(F)cc2)CC1)c1cccs1` (configuration not stated): the results for the Ki in assay [1] and in assay [2] were 59 nM and 7.2 nM, respectively.

For `O=C1CCCCC1CN1CCN(CCOC(c2ccc(F)cc2)c2ccc(F)cc2)CC1` (configuration not stated), the Ki in assay [1] was 1130 nM; in assay [2] it was 62 nM. Consider `O=C1c2ccccc2CCC1CN1CCN(CCOC(c2ccc(F)cc2)c2ccc(F)cc2)CC1` (configuration not stated), for which the Ki came out at 110 nM in assay [1] and 57 nM in assay [2]. The like results for `COc1ccc2c(c1)CCC(CN1CCN(CCOC(c3ccccc3)c3ccccc3)CC1)=C2` were, in that order, 530 nM and 39 nM.

Consider `Fc1ccc(C(OCCN2CCN(CC3=Cc4ccccc4CC3)CC2)c2ccc(F)cc2)cc1`, for which the Ki in assay [1] is 260 nM; in assay [2], 6.4 nM.

`COc1ccc2c(c1)CCC(CN1CCN(CCOC(c3ccccc3)c3ccccc3)CC1)C2=O` (configuration not stated): the Ki is 70 nM in assay [1] and 78 nM in assay [2]. In the case of `O=C1CCCCCC1CN1CCN(CCOC(c2ccc(F)cc2)c2ccc(F)cc2)CC1` (configuration not stated), the Ki in assay [1] was 530 nM; in assay [2] it was 49 nM. For `C1=C(CN2CCN(CCOC(c3ccccc3)c3ccccc3)CC2)CCc2ccccc21`, the Ki amounted to 1360 nM in assay [1] and 38 nM in assay [2]. Consider `O=C1CCCC1CN1CCN(CCOC(c2ccc(F)cc2)c2ccc(F)cc2)CC1` (configuration not stated), for which the results for the Ki in assay [1] and in assay [2] were 970 nM and 84 nM, respectively. On the same counts, the results for `COc1ccc2c(c1)CC[C@@H](CN1CCN(CCOC(c3ccc(F)cc3)c3ccc(F)cc3)CC1)[C@@H]2O` are 3 nM and 18 nM. Consider `O[C@@H]1c2ccccc2CC[C@H]1CN1CCN(CCOC(c2ccc(F)cc2)c2ccc(F)cc2)CC1`, for which the Ki in assay [1] was 32 nM; in assay [2], 18 nM. For the molecule `O[C@@H]1c2ccccc2CC[C@H]1CN1CCN(CCOC(c2ccccc2)c2ccccc2)CC1`, the Ki in assay [1] is 440 nM; in assay [2] it was 59 nM. Turning to `OC1CCCCC1CN1CCN(CCOC(c2ccc(F)cc2)c2ccc(F)cc2)CC1` (configuration not stated), the results for the Ki in assay [1] and in assay [2] were 580 nM and 37 nM, respectively. Take `OC(CCN1CCN(CCOC(c2ccc(F)cc2)c2ccc(F)cc2)CC1)c1cccc(F)c1` (configuration not stated): the Ki came out at 53 nM in assay [1] and 3.9 nM in assay [2]. For the molecule `O=C(CCN1CCN(CCOC(c2ccccc2)c2ccccc2)CC1)c1ccco1`, the Ki was 3300 nM in assay [1] and 300 nM in assay [2]. In the case of `O=C(CCN1CCN(CCOC(c2ccc(F)cc2)c2ccc(F)cc2)CC1)c1cccs1`, the Ki in assay [1] was 110 nM; in assay [2] it was 84 nM. With `OC(CCN1CCN(CCOC(c2ccccc2)c2ccccc2)CC1)c1ccco1` (configuration not stated), the Ki in assay [1] was determined as 1940 nM; in assay [2], 19 nM. For `O[C@H]1c2ccccc2CC[C@H]1CN1CCN(CCOC(c2ccccc2)c2ccccc2)CC1`, the Ki was 500 nM in assay [1] and 35 nM in assay [2]. The like results for `OC1CCCCCC1CN1CCN(CCOC(c2ccc(F)cc2)c2ccc(F)cc2)CC1` (configuration not stated) were, in that order, 480 nM and 22 nM. Take `O=C(CCN1CCN(CCOC(c2ccc(F)cc2)c2ccc(F)cc2)CC1)c1ccco1`: the Ki in assay [1] amounted to 350 nM; in assay [2], 72 nM. Take `OC1CCCCCC1CN1CCN(CCOC(c2ccccc2)c2ccccc2)CC1` (configuration not stated): the Ki in assay [1] amounted to 3900 nM; in assay [2] it was 210 nM.

Regarding `OC(CCN1CCN(CCOC(c2ccccc2)c2ccccc2)CC1)c1cccc(F)c1` (configuration not stated), the values for the Ki in assay [1] and in assay [2] were 910 nM and 4.1 nM, respectively. The like results for `OC1CCCCC1CN1CCN(CCOC(c2ccccc2)c2ccccc2)CC1` (configuration not stated) were, in that order, 3300 nM and 210 nM.

The values are drawn from ChEMBL document CHEMBL1136827, “Further exploration of 1-[2-[Bis-(4-fluorophenyl)methoxy]ethyl]piperazine (GBR 12909): role of N-aromatic, N-heteroaromatic, and 3-oxygenated N-phenylpropyl substituents on affinity for the dopamine and serotonin transporter” (Bioorg Med Chem Lett, 2003).
